Drawing on patent US20230339891A1, “URACIL DERIVATIVES AS MER-AXL INHIBITORS” (BRISTOL-MYERS SQUIBB COMPANY, priority 2018, published 2023), this text covers IC50 for 21 molecules.

One assay addresses GST-MERTK 578-872 (Homo sapiens (Human), UniProt Q12866). Briefly: MERTK kinase homogeneous time resolved fluorescence (HTRF) binding assay. The following applies: 1 nM kinase, fluorescein-labeled kinase tracer at Kd, 60 minutes at room temperature; read-out: Mer HTRF IC50. The gist of the method: (§1)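 HTRF binding read-out after 60 min at room temperature, expressed as the 520/495 nm (fluorescein/terbium) ratio. Inhibition normalized to no-protein (100%) and vehicle (0%) controls. IC50 from 11-point dose-response; compounds from 10 mM DMSO stocks.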
On the technique in general: TR-FRET usually uses a lanthanide donor and a delayed reading to cut background.

The target in a further assay is HIS-AXL 473-End (Homo sapiens (Human), UniProt P30530). The experiment in a line: AXL kinase homogeneous time resolved fluorescence (HTRF) binding assay. The following applies: 1 nM kinase, fluorescein-labeled kinase tracer at Kd, 60 minutes at room temperature. The gist of the method: as §1

What is called IC50 is the concentration needed to halve the response being measured.

Sequence of HIS-AXL 473-End (P30530 473-894): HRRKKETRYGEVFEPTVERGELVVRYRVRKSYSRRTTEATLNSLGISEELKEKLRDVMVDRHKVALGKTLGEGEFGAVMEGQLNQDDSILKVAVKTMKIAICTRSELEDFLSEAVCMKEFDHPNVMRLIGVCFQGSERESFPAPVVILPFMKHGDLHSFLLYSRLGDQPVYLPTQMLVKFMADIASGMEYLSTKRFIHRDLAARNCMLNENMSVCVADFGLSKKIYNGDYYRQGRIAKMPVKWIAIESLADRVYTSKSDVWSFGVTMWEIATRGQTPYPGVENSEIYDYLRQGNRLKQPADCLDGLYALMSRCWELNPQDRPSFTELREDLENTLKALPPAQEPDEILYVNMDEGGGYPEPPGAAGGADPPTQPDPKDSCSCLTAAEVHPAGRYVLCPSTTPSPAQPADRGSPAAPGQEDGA
Sequence of GST-MERTK 578-872 (Q12866 578-872): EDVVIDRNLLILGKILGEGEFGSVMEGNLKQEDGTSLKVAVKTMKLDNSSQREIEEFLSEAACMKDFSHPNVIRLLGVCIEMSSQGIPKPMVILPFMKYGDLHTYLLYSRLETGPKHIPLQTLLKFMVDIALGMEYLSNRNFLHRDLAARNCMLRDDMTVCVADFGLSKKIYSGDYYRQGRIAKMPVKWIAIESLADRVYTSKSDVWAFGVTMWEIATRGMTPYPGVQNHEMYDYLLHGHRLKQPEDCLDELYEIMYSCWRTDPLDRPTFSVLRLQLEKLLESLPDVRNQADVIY

For `CC(C)n1cc(C(=O)Nc2ccc(Oc3ccnc(Nc4ccc(C#N)c(N5CCC(S(C)(=O)=O)C5)n4)c3)c(F)c2)c(=O)n(-c2ccc(F)cc2)c1=O` (stereo not drawn) [Example 124], the IC50 at GST-MERTK 578-872 turned out to be 2.9 nM; on HIS-AXL 473-End, 2 nM.
For `CNS(=O)(=O)c1ccc(Nc2cc(Oc3ccc(NC(=O)c4cn(C(C)C)c(=O)n(-c5ccc(F)cc5)c4=O)cc3F)ccn2)nc1` [Example 77] the same measures were 8.3 nM and 5 nM.
For `Cc1cnc(Nc2cc(Oc3ccc(NC(=O)c4cn(C(C)C)c(=O)n(-c5ccc(F)cc5)c4=O)cc3F)ccn2)cc1C` [Example 6], in that order: 37 nM and 7.9 nM.
For `COC(=O)Cc1csc(Nc2cc(Oc3ccc(NC(=O)c4cn(C(C)C)c(=O)n(-c5ccc(F)cc5)c4=O)cc3F)ccn2)n1` [Example 33] the same measures were 67 nM and 19 nM.
For `CC(C)n1cc(C(=O)Nc2ccc(Oc3ccnc(Nc4ccc(C#N)c(N5CCN(S(C)(=O)=O)[C@H](C)C5)n4)c3)c(F)c2)c(=O)n(-c2ccc(F)cc2)c1=O` [Example 125], the half-maximal inhibitory concentration (IC50) on GST-MERTK 578-872 was found to be 2.2 nM; at HIS-AXL 473-End, 1.3 nM.
For `CC(C)n1cc(C(=O)Nc2ccc(Oc3ccnc(Nc4ccc(N5CCOCC5)cn4)c3)c(F)c2)c(=O)n(-c2ccc(F)cc2)c1=O` [Example 21], in that order: 164 nM and 39 nM.
For `CN(C)S(=O)(=O)c1ccc(Nc2cc(Oc3ccc(NC(=O)c4cn([C@H]5CCOC5)c(=O)n(-c5ccc(F)cc5)c4=O)cc3F)ccn2)nc1` [Example 47], the IC50 on GST-MERTK 578-872 turned out to be 7.9 nM; at HIS-AXL 473-End, 6 nM.
For `CC(C)n1cc(C(=O)Nc2ccc(Oc3ccnc(Nc4ccc(S(=O)(=O)N(C)C)cn4)c3)c(F)c2)c(=O)n(-c2ccccc2)c1=O` [Example 42], in that order: 21 nM and 7.4 nM.
Consider `CC(C)n1cc(C(=O)Nc2ccc(Oc3ccnc(Nc4ccc(S(=O)(=O)N5CCCCC5)cn4)c3)c(F)c2)c(=O)n(-c2ccc(F)cc2)c1=O` [Example 76, N-{3-Fluoro-4-[(2-{[5-(piperidine-1-sulfonyl)pyridin-2-yl]amino}pyridin-4-yl)oxy]phenyl}-3-(4-fluorophenyl)-2,4-dioxo-1-(propan-2-yl)-1,2,3,4-tetrahydropyrimidine-5-carboxamide], for which the IC50 at GST-MERTK 578-872 came to 38 nM; on HIS-AXL 473-End it was 18 nM.
For `CC(C)n1cc(C(=O)Nc2ccc(Oc3ccnc(Nc4ccc(N5CCC(NC(=O)OC(C)(C)C)C5=O)cn4)c3)c(F)c2)c(=O)n(-c2ccc(F)cc2)c1=O` (stereo not drawn) [Example 89] the same measures were 6.6 nM and 4.4 nM.
For `COC(=O)N1CCN(c2nc(Nc3cc(Oc4ccc(NC(=O)c5cn(C(C)C)c(=O)n(-c6ccc(F)cc6)c5=O)cc4F)ccn3)ccc2C(F)(F)F)CC1` [Example 139], in that order: 11 nM and 77 nM.
Regarding `CC(C)n1cc(C(=O)Nc2ccc(Oc3ccnc(Nc4ccnc(N5CCCC5)n4)c3)c(F)c2)c(=O)n(Cc2ccccc2)c1=O` [Example 106], the half-inhibitory concentration (IC50) at GST-MERTK 578-872 and at HIS-AXL 473-End was 8.2 nM each time.
As for `CC(C)n1cc(C(=O)Nc2ccc(Oc3ccnc(Nc4ccc(S(=O)(=O)N(C)C)cn4)c3)c(F)c2)c(=O)n(Cc2ccccc2)c1=O` [Example 49], the IC50 worked out at 3310 nM on GST-MERTK 578-872 and 110 nM on HIS-AXL 473-End.
For `CC(C)n1cc(C(=O)Nc2ccc(Oc3ccnc(Nc4ccc(S(=O)(=O)N(C)C)cn4)c3)cc2)c(=O)n(-c2ccccc2)c1=O` [Example 75, N-{4-[(2-{[5-(dimethylsulfamoyl)pyridin-2-yl]amino}pyridin-4-yl)oxy]phenyl}-2,4-dioxo-3-phenyl-1-(propan-2-yl)-1,2,3,4-tetrahydropyrimidine-5-carboxamide], in that order: 42 nM and 3.5 nM.
For `Cc1cc(Nc2cc(Oc3ccc(NC(=O)c4cn(C(C)C)c(=O)n(-c5ccc(F)cc5)c4=O)cc3F)ccn2)ncc1S(=O)(=O)N(C)C` [Example 86, N-{4-[(2-{[5-(dimethylsulfamoyl)-4-methylpyridin-2-yl]amino}pyridin-4-yl)oxy]-3-fluorophenyl}-3-(4-fluorophenyl)-2,4-dioxo-1-(propan-2-yl)-1,2,3,4-tetrahydropyrimidine-5-carboxamide] the same measures were 31 nM and 10 nM.
For `CC(C)n1cc(C(=O)Nc2ccc(Oc3ccnc(Nc4ccc(C(=O)N(C)C)cn4)c3)c(F)c2)c(=O)n(-c2ccc(F)cc2)c1=O` [Example 17], in that order: 1.9 nM and 2.7 nM.
With `CC(C)n1cc(C(=O)Nc2ccc(Oc3ccnc(Nc4ccc(C(=O)NCC(F)F)cn4)c3)c(F)c2)c(=O)n(-c2ccc(F)cc2)c1=O` [Example 95], the IC50 came to 4.3 nM on GST-MERTK 578-872 and 0.8 nM on HIS-AXL 473-End.
Consider `CC(C)n1cc(C(=O)Nc2ccc(Oc3ccnc(Nc4ccc(S(C)(=O)=O)cn4)c3)c(F)c2)c(=O)n(-c2ccc(F)cc2)c1=O` [Example 18], for which the IC50 at GST-MERTK 578-872 worked out at 18 nM; on HIS-AXL 473-End it was 11 nM.
For `CC(C)n1cc(C(=O)Nc2ccc(Oc3ccnc(Nc4ccc(C#N)c(N5CCC(O)CC5)n4)c3)c(F)c2)c(=O)n(-c2ccc(F)cc2)c1=O` [Example 120], in that order: 1.6 nM and 1.1 nM.
For `CC(C)Cn1c(=O)c(C(=O)Nc2ccc(Oc3ccnc(Nc4ccnc(N5CCCC5)n4)c3)c(F)c2)cn(C(C)C)c1=O` [Example 107], in that order: 5.4 nM and 11 nM.
For `CC(C)n1cc(C(=O)Nc2ccc(Oc3ccnc(Nc4ccc(C#N)c(N5CCC(S(C)(=O)=O)CC5)n4)c3)c(F)c2)c(=O)n(-c2ccc(F)cc2)c1=O` [Example 123] the same measures were 1.8 nM and 1.4 nM.
